Tested on: bone marrow erythroblasts
Test: Flow cytometry of bone marrow cells / erythroblast subsets (Ter119/CD71 double staining) of treated mice
Format: in vivo, mouse
Settings: CLEU 50 mg/body i.p.
Method: Wild-type mice with a genetic background of C57BL/6J were purchased from Charles River Laboratories, Inc. Mice at 8 to 14 weeks of age were used for analysis. For CLEU treatment (50 mg/body), a solution of cycloleucine (CLEU) was prepared by diluting cycloleucine (CLEU) (Sigma) in PBS (50 mg/ml), and 1 ml of the CLEU solution was administered intraperitoneally. For AKBA treatment (2 mg/body), 2 mg AKBA (Enzo Life Sciences)/20% DMSO/1 mL PBS solution was administered intraperitoneally. Vehicle without AKBA was used as a control. For measuring complete blood count of peripheral blood, peripheral blood was collected from facial veins and counted by use of an automated animal blood cell counter (microsemi LC-662). All of the experiments conducted in this study were approved by the Animal Experiment Committee of the Environmental Safety Committee of Tohoku University.
BM cells and spleen cells were harvested in a conventional manner. Cells were stained with combinations of antibodies specific to erythroblasts and mature cells, to thereby identify them. The cells were visualized with antibody and streptavidin-peridinin chlorophyll protein-cyanin 5.5. The antibodies used in this study were as follows: anti-CD3e (145-2C11), anti-CD4 (GK1.5 or RM4.5), anti-CD8a (53-6.7), anti-Gr-1 (RB6-8C5), anti-B220 (RA3-6B2), anti-Ter-119 (TER-119), anti-CD71 (R17217 or C2). Cells were stained with […] (Sigma), and dead cells were excluded from analysis. Flow cytometric analysis and cell sorting were performed according to the manufacturer's protocol using FACS AriaII (BD), and then the obtained data were analyzed using FlowJo software (TreeStar).
Additionally, MAT inhibitor PF9366 (PF) was administered to mice and the effect thereof was investigated. Vehicle (DMSO) (control (Ctrl)) or 10 mM PF9366 (prepared at a concentration of 40 μl/40 ml water) was provided in a drinking bottle (0 h). In addition, 80 μl of vehicle (DMSO) or 80 μl of 10 mM PF9366 dissolved in 1 ml PBS was also administered intraperitoneally at 0 h and 24 h. Analysis was carried out at Day 2 (48 h).
MAT inhibitor 3-acetyl-11-keto-β-boswellic acid (AKBA; 2 mg/body) was intraperitoneally administered to mice at 0 and 24 hours, and analyzed after 48 hours.

## NC1(C(=O)O)CCCC1 [CLEU, cycloleucine]
Day 2, Ter119/CD71 double staining
  subset from which the increase of erythroblasts was initiated: initiated from subset II
Day 2, Ter119/CD71 double staining, vs PBS
  maturation of erythroblasts: significantly up-regulated
Day 2, flow cytometry, vs PBS
  erythroid cells in BM: considerable increase
Femur and tibiae, Day 2, vs PBS
  BM cell counts: significantly increased
